Results as given in US9802901B2, “Antibacterial 2H-indazole derivatives” (priority 2013, dated 2017).
Converted amounts (≈) assume the structure as drawn. Where two headings read alike, the source gives them in different places. Blank lines part the entries; values can stand above or below the compound they belong to.

Experiments:
wild-type E. coli A-1261 = test: MIC against wild-type E. coli A-1261 with or without alkaline phosphatase or esterase; type: cell-based; details: Escherichia coli
Procedure: Minimal Inhibitory Concentrations (MICs; mg/L) were determined in cation-adjusted Mueller-Hinton Broth by a microdilution method following the description given in “Methods for Dilution Antimicrobial Susceptibility Tests for Bacteria that Grow Aerobically”, Approved standard, 7th ed., Clinical and Laboratory Standards Institute (CLSI) Document M7-A7, Wayne, Pa., USA (2006).
The compounds of Examples 62 and 63 were tested against wild-type E. coli A-1261 in the absence of alkaline phosphatase or esterase, in the presence of an alkaline phosphatase and in the presence of an esterase. The corresponding antibacterial test results are given in Table 2 hereafter (MICs in mg/L).

K. pneumoniae A-651 = test: Bacterial growth minimal inhibitory concentration (broth microdilution, CLSI M7-A7); type: cell-based, Klebsiella pneumoniae; details: cation-adjusted Mueller-Hinton Broth, microdilution, multiply-resistant (quinolone-resistant) strain; for MIC: Klebsiella pneumoniae, A651, read-out: MIC for K. Pneumoniae A-651
Summary of the method: (§1)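 Broth microdilution in cation-adjusted Mueller-Hinton Broth per CLSI M7-A7; MICs reported in mg/L. K. pneumoniae A-651 and A. baumannii T6474 are multiply resistant, quinolone-resistant strains; E. coli ATCC25922 and P. aeruginosa ATCC27853 are quinolone-sensitive.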

[1] = system: Acinetobacter baumannii T6474; test: as above; type: cell-based; details: cation-adjusted Mueller-Hinton Broth, microdilution, multiply-resistant (quinolone-resistant) strain; for MIC: Acinetobacter baumannii, T6474, read-out: MIC for A. Baumannii T6474
Summary of the method: as §1

P. aeruginosa ATCC27853 = test: as above; type: cell-based, Pseudomonas aeruginosa; details: cation-adjusted Mueller-Hinton Broth, microdilution, quinolone-sensitive strain; for MIC: Pseudomonas aeruginosa, ATCC27853, read-out: MIC for P. aeruginosa ATCC27853
Summary of the method: as §1

E. coli ATCC25922 = test: as above; type: cell-based, Escherichia coli; details: cation-adjusted Mueller-Hinton Broth, microdilution, quinolone-sensitive strain; for MIC: Escherichia coli, ATCC25922, read-out: MIC for E. coli ATCC25922
Summary of the method: as §1

[2] = alkaline phosphatase 2 i.U./mL, read-out: MIC for E. coli A-1261 In the presence of an alkaline phosphatase (2 i.U./mL)
[3] = esterase 10 i.U./mL, read-out: MIC for E. coli A-1261 In the presence of an esterase (10 i.U./mL)
[4] = no alkaline phosphatase or esterase, read-out: MIC for E. coli A-1261 In the absence of alkaline phosphatase or esterase

Compound: C[C@@](CCn1cc2cc(-c3ccc(OC[C@H](O)CO)cc3F)ccc2n1)(C(=O)NO)S(C)(=O)=O [Example 58, (R)-4-(5-(4-((R)-2,3-dihydroxypropoxy)-2-fluorophenyl)-2H-indazol-2-yl)-N-hydroxy-2-methyl-2-(methylsulfonyl)butanamide]
MIC (K. pneumoniae A-651): 4 µg/mL (≈ 8.07 µM) | MIC [1]: 8 µg/mL (≈ 16.1 µM) | MIC (P. aeruginosa ATCC27853): 2 µg/mL (≈ 4.04 µM) | MIC (E. coli ATCC25922): 2 µg/mL (≈ 4.04 µM)

Compound: C[C@@](CCn1cc2cc(C#Cc3ccc(C4(N)COC4)cc3)ccc2n1)(C(=O)NO)S(C)(=O)=O.Cc1ccc(S(=O)(=O)O)cc1 [Example 10, (R)-4-{5-[4-(3-amino-oxetan-3-yl)-phenylethynyl]-indazol-2-yl}-N-hydroxy-2-methylsulfonyl-2-methyl-butanamide toluene-4-sulfonate]
MIC (K. pneumoniae A-651): 0.5 µg/mL | MIC [1]: 2 µg/mL | MIC (P. aeruginosa ATCC27853): 2 µg/mL | MIC (E. coli ATCC25922): 0.5 µg/mL

Compound: C[C@@](CCn1cc2cc(C#Cc3ccc([C@H]4C[C@@H]4CO)cc3)ccc2n1)(C(=O)NO)S(C)(=O)=O [Example 42, (R)—N-hydroxy-4-(5-((4-((1S,2S)-2-(hydroxymethyl)cyclopropyl)phenyl)ethynyl)-2H-indazol-2-yl)-2-methyl-2-(methylsulfonyl)butanamide]
MIC (K. pneumoniae A-651): 0.063 µg/mL (≈ 0.131 µM) | MIC [1]: 0.125 µg/mL (≈ 0.26 µM) | MIC (P. aeruginosa ATCC27853): 0.25 µg/mL (≈ 0.519 µM) | MIC (E. coli ATCC25922): 0.063 µg/mL (≈ 0.131 µM)

Compound: C[C@@](CCn1cc2cc(C#CC#C[C@@H]3C[C@H]3CO)ccc2n1)(C(=O)NO)S(C)(=O)=O.O=CO [Example 37]
MIC for K. Pneumoniae A-651 (K. pneumoniae A-651): 0.063 µg/mL | MIC for A. Baumannii T6474 [1]: 2 µg/mL | MIC for P. aeruginosa ATCC27853 (P. aeruginosa ATCC27853): 0.25 µg/mL | MIC for E. coli ATCC25922 (E. coli ATCC25922): 0.063 µg/mL

Compound: C[C@@](CCn1cc2cc(C#CC#CC3CN(C(=O)CO)C3)ccc2n1)(C(=O)NO)S(C)(=O)=O [Example 81, (R)—N-hydroxy-4-(5-((1-(2-hydroxyacetyl)azetidin-3-yl)buta-1,3-diyn-1-yl)-2H-indazol-2-yl)-2-methyl-2-(methylsulfonyl)butanamide]
MIC (K. pneumoniae A-651): 1 µg/mL (≈ 2.12 µM) | MIC [1]: 4 µg/mL (≈ 8.47 µM) | MIC (P. aeruginosa ATCC27853): 1 µg/mL (≈ 2.12 µM) | MIC (E. coli ATCC25922): 0.5 µg/mL (≈ 1.06 µM)

Other lines, results leading:

MIC (wild-type E. coli A-1261; [2]): 1 µg/mL | MIC (wild-type E. coli A-1261; [3]): > 16 µg/mL | MIC (wild-type E. coli A-1261; [4]): > 16 µg/mL
Compound: C[C@@](CCn1cc2cc(C#Cc3ccc(C4(COP(=O)(O)O)CC4)cc3)ccc2n1)(C(=O)NO)S(C)(=O)=O [Example 62, (R)-(1-(4-((2-(4-(hydroxyamino)-3-methyl-3-(methylsulfonyl)-4-oxobutyl)-2H-indazol-5-yl)ethynyl)phenyl)cyclopropyl)methyl dihydrogen phosphate]

MIC (K. pneumoniae A-651): 4 µg/mL | MIC [1]: 8 µg/mL | MIC (wild-type E. coli A-1261; [2]): 0.5 µg/mL | MIC (wild-type E. coli A-1261; [3]): 0.063 µg/mL | MIC (wild-type E. coli A-1261; [4]): 0.25 µg/mL | MIC (P. aeruginosa ATCC27853): 8 µg/mL | MIC (E. coli ATCC25922): 2 µg/mL
Compound: CN(C)CC(=O)OCC1(c2ccc(C#Cc3ccc4nn(CC[C@](C)(C(=O)NO)S(C)(=O)=O)cc4c3)cc2)CC1.Cl [Example 63, (R)-(1-(4-((2-(4-(hydroxyamino)-3-methyl-3-(methylsulfonyl)-4-oxobutyl)-2H-indazol-5-yl)ethynyl)phenyl)cyclopropyl)methyl dimethylglycinate hydrochloride]

MIC (K. pneumoniae A-651): 0.25 µg/mL | MIC [1]: 2 µg/mL | MIC (P. aeruginosa ATCC27853): 1 µg/mL | MIC (E. coli ATCC25922): 0.125 µg/mL
Compound: C[C@@](CCn1cc2cc(C#Cc3ccc(C4(N)CC4)cc3)ccc2n1)(C(=O)NO)S(C)(=O)=O.O=CO [Example 79, (R)-4-(5-((4-(1-aminocyclopropyl)phenyl)ethynyl)-2H-indazol-2-yl)-N-hydroxy-2-methyl-2-(methylsulfonyl)butanamide formate]
